# Test results taken from patent US9149038B2, “4-amino-6-(heterocyclic)picolinates and 6-amino-2-(heterocyclic)pyrimidine-4-carboxylates and their use as herbicides” (Dow AgroSciences LLC, priority 2013, dated 2015).
# Read-outs that look alike come from different tables or passages of the source.
# Columns and labels:
# [1] = test system: Key Broadleaf Weed and Crop Species; test: Post-Emergent Test II: postemergent herbicidal activity, visual rating after 14 d (Table 7); format: in vivo; details: post-emergence, 336 h; for pest or weed control at 35 g/ha: 35 g ai/ha; for pest or weed control at 70 g/ha: 70 g ai/ha; for pest or weed control at 140 g/ha: 140 g ai/ha
# Outline: (§1)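 Greenhouse-grown plants at the first or second true leaf stage (7-21 d, ~15 h photoperiod, 23-29° C day) were sprayed with compound in acetone/DMSO-based aqueous spray containing crop oil concentrate and Triton X-155 at 187 L/ha. Injury versus untreated plants was rated visually after 14 d on a 0-100 scale.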
# [2] = test system: Key Grass and Sedge Weeds as well as Grass Crops; test: Post-Emergent Test II: postemergent herbicidal activity, visual rating after 14 d (Table 8); format: in vivo; details: post-emergence, 336 h; for pest or weed control at 35 g/ha: 35 g ai/ha; for pest or weed control at 70 g/ha: 70 g ai/ha; for pest or weed control at 140 g/ha: 140 g ai/ha
# Outline: as §1
# [3] = lambsquarters (Chenopodium album), read-out: Visual Growth Reduction (%) 14 Days After Application CHEAL
# [4] = oilseed rape, canola (Brassica napus), read-out: Visual Growth Reduction (%) 14 Days After Application BRSNN
# [5] = sunflower (Helianthus annuus), read-out: Visual Growth Reduction (%) 14 Days After Application HELAN
# [6] = velvetleaf (Abutilon theophrasti), read-out: Visual Growth Reduction (%) 14 Days After Application ABUTH
# [7] = wild poinsettia (Euphorbia heterophylla), read-out: Visual Growth Reduction (%) 14 Days After Application EPHHL
# [8] = barnyardgrass (Echinochloa crus-galli), read-out: Visual Growth Reduction (%) 14 Days After Application ECHCG
# [9] = giant foxtail (Setaria faberi), read-out: Visual Growth Reduction (%) 14 Days After Application SETFA
# [10] = maize, corn (Zea mays), read-out: Visual Growth Reduction (%) 14 Days After Application ZEAMX
# [11] = rice (Oryza sativa), read-out: Visual Growth Reduction (%) 14 Days After Application ORYSA
# [12] = wheat, spring (Triticum aestivum), read-out: Visual Growth Reduction (%) 14 Days After Application TRZAS
# [13] = yellow nutsedge (Cyperus esculentus), read-out: Visual Growth Reduction (%) 14 Days After Application CYPES
# [14] = redroot pigweed (Amaranthus retroflexus), read-out: Visual Growth Reduction (%) 14 Days After Application AMARE
SMILES,"pest or weed control at 35 g/ha [1, 3] [%]","pest or weed control at 70 g/ha [1, 3] [%]","pest or weed control at 140 g/ha [1, 3] [%]","pest or weed control at 35 g/ha [1, 4] [%]","pest or weed control at 70 g/ha [1, 4] [%]","pest or weed control at 140 g/ha [1, 4] [%]","pest or weed control at 35 g/ha [1, 5] [%]","pest or weed control at 70 g/ha [1, 5] [%]","pest or weed control at 140 g/ha [1, 5] [%]","pest or weed control at 35 g/ha [1, 6] [%]","pest or weed control at 70 g/ha [1, 6] [%]","pest or weed control at 140 g/ha [1, 6] [%]","pest or weed control at 35 g/ha [1, 7] [%]","pest or weed control at 70 g/ha [1, 7] [%]","pest or weed control at 140 g/ha [1, 7] [%]","pest or weed control at 35 g/ha [2, 8] [%]","pest or weed control at 70 g/ha [2, 8] [%]","pest or weed control at 140 g/ha [2, 8] [%]","pest or weed control at 35 g/ha [2, 9] [%]","pest or weed control at 70 g/ha [2, 9] [%]",also measured
Nc1c(F)c(-c2ccc3c(c2F)OC(F)(F)O3)nc(C(=O)O)c1Cl [Compound 11],95 to 100,95 to 100,95 to 100,85 to 94,85 to 94,85 to 94,95 to 100,95 to 100,95 to 100,85 to 94,85 to 94,95 to 100,95 to 100,95 to 100,95 to 100,85 to 94,95 to 100,95 to 100,75 to 84,85 to 94,"pest or weed control at 140 g/ha [2, 9]: 95 to 100%; pest or weed control at 35 g/ha [2, 10]: 60 to 74%; pest or weed control at 70 g/ha [2, 10]: 60 to 74%; pest or weed control at 140 g/ha [2, 10]: 75 to 84%; pest or weed control at 35 g/ha [2, 11]: 0 to 29%; pest or weed control at 70 g/ha [2, 11]: 0 to 29%; pest or weed control at 140 g/ha [2, 11]: 30 to 44%; pest or weed control at 35 g/ha [2, 12]: 60 to 74%; pest or weed control at 70 g/ha [2, 12]: 60 to 74%; pest or weed control at 140 g/ha [2, 12]: 75 to 84%; pest or weed control at 35 g/ha [2, 13]: 0 to 29%; pest or weed control at 70 g/ha [2, 13]: 95 to 100%; pest or weed control at 140 g/ha [2, 13]: 95 to 100%"
"COC(=O)c1nc(-c2ccc(I)c3c2OC(F)(F)O3)c(F)c(N)c1Cl [Compound 79, Methyl 4-amino-3-chloro-6-(2,2-difluoro-7-iodobenzo-[d][1,3]dioxol-4-yl)-5-fluoropicolinate]",85 to 94,85 to 94,85 to 94,60 to 74,60 to 74,60 to 74,85 to 94,85 to 94,85 to 94,60 to 74,75 to 84,75 to 84,0 to 29,0 to 29,0 to 29,0 to 29,0 to 29,0 to 29,0 to 29,0 to 29,"pest or weed control at 35 g/ha [1, 14]: 95 to 100%; pest or weed control at 70 g/ha [1, 14]: 95 to 100%; pest or weed control at 140 g/ha [1, 14]: 95 to 100%; pest or weed control at 140 g/ha [2, 9]: 0 to 29%; pest or weed control at 35 g/ha [2, 10]: 0 to 29%; pest or weed control at 70 g/ha [2, 10]: 0 to 29%; pest or weed control at 140 g/ha [2, 10]: 0 to 29%; pest or weed control at 35 g/ha [2, 11]: 0 to 29%; pest or weed control at 70 g/ha [2, 11]: 0 to 29%; pest or weed control at 140 g/ha [2, 11]: 0 to 29%; pest or weed control at 35 g/ha [2, 12]: 0 to 29%; pest or weed control at 70 g/ha [2, 12]: 0 to 29%; pest or weed control at 140 g/ha [2, 12]: 0 to 29%; pest or weed control at 35 g/ha [2, 13]: 0 to 29%; pest or weed control at 70 g/ha [2, 13]: 0 to 29%; pest or weed control at 140 g/ha [2, 13]: 0 to 29%"
Nc1c(F)c(-c2cc3c(cc2F)OC(F)(F)O3)nc(C(=O)O)c1Cl [Compound 13],60 to 74,85 to 94,85 to 94,0 to 29,30 to 44,45 to 59,85 to 94,85 to 94,85 to 94,60 to 74,75 to 84,75 to 84,45 to 59,75 to 84,95 to 100,75 to 84,95 to 100,85 to 94,75 to 84,75 to 84,"pest or weed control at 35 g/ha [1, 14]: 0 to 29%; pest or weed control at 70 g/ha [1, 14]: 0 to 29%; pest or weed control at 140 g/ha [1, 14]: 0 to 29%; pest or weed control at 140 g/ha [2, 9]: 85 to 94%; pest or weed control at 35 g/ha [2, 10]: 60 to 74%; pest or weed control at 70 g/ha [2, 10]: 60 to 74%; pest or weed control at 140 g/ha [2, 10]: 75 to 84%; pest or weed control at 35 g/ha [2, 11]: 0 to 29%; pest or weed control at 70 g/ha [2, 11]: 0 to 29%; pest or weed control at 140 g/ha [2, 11]: 0 to 29%; pest or weed control at 35 g/ha [2, 12]: 45 to 59%; pest or weed control at 70 g/ha [2, 12]: 60 to 74%; pest or weed control at 140 g/ha [2, 12]: 60 to 74%; pest or weed control at 35 g/ha [2, 13]: 45 to 59%; pest or weed control at 70 g/ha [2, 13]: 75 to 84%; pest or weed control at 140 g/ha [2, 13]: 95 to 100%"
